Tests used:
EGFR tyrosine kinase = target: T1, EGFR tyrosine kinase (Homo sapiens, UniProt P00533); assay: HTRF assay, inhibition of EGFR tyrosine kinase; format: biochemical; conditions: HTRF method
T1 construct: purchased Sigma Aldrich
Description: The activity of inhibitory against the kinase of the test compound is expressed by IC50. The assays are performed by Homogeneous time-resolved fluorescence (HTRF) method which is as follows: a series of synthesized analogues with gradient concentration are incubated for 5 minutes in enzymatic solution with specific concentration (for EGFR) at room temperature. Then proper amount of substrate and ATP are added into the reaction mixture to start the enzyme reaction. The assays of the specific concentration of compound is measured by Flexstation III of Molecular device company after the stop buffer and detecting liquid are added to the enzyme reaction system and hatch at room temperature for 1 hour. And the activity of inhibitory against the kinase of the test compound with different concentration will be calculated, then according to the 4-parameter equation, fit the inhibitory activity of the test compound with different concentration to get the IC50. EGFR is purchased from Sigma Aldrich. The HTRF KinEASE-TK is purchased from Cisbio Bioassays. ATP is purchased from Sigma Aldrich.

A431 cell = assay: Proliferation inhibition, A431 cells (CellTiter-Glo); format: cell-based; conditions: Homo sapiens, A-431, 48 hours
Description: (§1) This example is to determine the proliferation inhibitory activity against wide type of high expression cell lines A431 of EGFR and mutant cell lines NCI-H1975^L858RT790M, the proliferation inhibitory activity in cell-based level of compound is expressed by IC50. The test method is as follows: both cell lines are purchased from American type culture collection (ATCC). The cells are seeded in a white and opaque 384-well culture plate with a proper concentration (A431: 20000 cells/ml medium; H1975: 15000 cells/ml medium), cultured at 37° C. with 5% CO2 for 24 hrs, a series of medicine with gradient concentration is added, generally 10 concentrations, cultured for another 48 hours under the previous conditions. The assays of the proliferation inhibitory activity against the A431 and H1975 cell of the test compounds are performed by the CellTiter-Glo Luminescent Cell Viability Assay and calculate the proliferation inhibitory activity of compound with different concentrations. CellTiter-Glo Luminescent Cell Viability Assay is purchased from Promega. Fit the data of proliferation inhibitory activity against A431 and H1975 of compounds with different concentrations with 4-parameter equation.

[1] = tested on: NCI-H1975 L858R T790M cell; assay: Proliferation inhibition, H1975 cells (CellTiter-Glo); format: cell-based; conditions: Homo sapiens, 48 hours
Description: as §1

T1 sequence (P00533 25-1210): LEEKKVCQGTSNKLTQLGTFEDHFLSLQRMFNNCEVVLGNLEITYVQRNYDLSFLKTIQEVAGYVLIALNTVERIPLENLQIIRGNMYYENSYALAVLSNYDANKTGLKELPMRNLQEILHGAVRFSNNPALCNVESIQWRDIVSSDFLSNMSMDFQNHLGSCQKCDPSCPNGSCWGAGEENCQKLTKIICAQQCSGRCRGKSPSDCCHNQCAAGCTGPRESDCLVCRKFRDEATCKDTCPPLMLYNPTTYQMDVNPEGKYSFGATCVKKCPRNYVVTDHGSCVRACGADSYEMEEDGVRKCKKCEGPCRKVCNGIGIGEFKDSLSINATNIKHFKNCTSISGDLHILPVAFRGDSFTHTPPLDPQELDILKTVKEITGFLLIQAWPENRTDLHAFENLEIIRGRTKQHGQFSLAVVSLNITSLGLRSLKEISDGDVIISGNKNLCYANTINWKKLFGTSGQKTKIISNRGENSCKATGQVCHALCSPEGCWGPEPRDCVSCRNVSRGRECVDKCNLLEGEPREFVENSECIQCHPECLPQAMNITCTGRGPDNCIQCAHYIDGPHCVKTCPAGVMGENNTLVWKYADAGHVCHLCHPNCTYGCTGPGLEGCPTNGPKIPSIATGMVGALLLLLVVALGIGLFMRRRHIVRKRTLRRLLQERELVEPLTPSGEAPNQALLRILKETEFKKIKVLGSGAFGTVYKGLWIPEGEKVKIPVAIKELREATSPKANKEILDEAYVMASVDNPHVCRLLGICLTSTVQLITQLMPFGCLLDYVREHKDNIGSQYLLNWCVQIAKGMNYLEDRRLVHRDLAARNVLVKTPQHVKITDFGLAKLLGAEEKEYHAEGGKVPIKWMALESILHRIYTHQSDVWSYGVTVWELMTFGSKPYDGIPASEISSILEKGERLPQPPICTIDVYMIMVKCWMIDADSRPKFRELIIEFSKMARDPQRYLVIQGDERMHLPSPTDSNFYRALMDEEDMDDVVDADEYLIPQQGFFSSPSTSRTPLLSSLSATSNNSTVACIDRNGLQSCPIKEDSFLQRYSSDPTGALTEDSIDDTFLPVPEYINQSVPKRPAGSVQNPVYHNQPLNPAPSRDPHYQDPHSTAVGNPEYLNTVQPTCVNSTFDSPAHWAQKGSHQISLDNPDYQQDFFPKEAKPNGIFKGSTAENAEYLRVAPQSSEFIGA

IC50 (EGFR tyrosine kinase)	IC50 (A431 cell)	IC50 [1]	Structure (SMILES)
0.53 nM	8.1 µM	3.7 µM	COc1cc2ncnc(Nc3ccc(F)c(Cl)c3)c2cc1NC(=O)/C(F)=C/CN1CCOCC1 [Compound 22-1, (Z)-N-(4-((3-chloro-4-fluorophenyl)amino)-7-methoxyquinazolin-6-yl)-2-fluoro-4-morpholinobut-2-enamide]
0.3 nM	2.9 µM	2.4 µM	COc1cc2ncnc(Nc3ccc(F)c(Cl)c3)c2cc1NC(=O)/C(F)=C\CN1CCOCC1 [Compound 22-2, (E)-N-(4-((3-chloro-4-fluorophenyl)amino)-7-methoxyquinazolin-6-yl)-2-fluoro-4-morpholinobut-2-enamide]
1.6 nM	1.3 µM	3 µM	C=C(F)C(=O)Nc1cc2c(Nc3ccc(Br)cc3F)ncnc2cc1OCCCN1CCOCC1 [Compound 23, N-[4-(4-Bromo-2-fluoro-phenylamino)-7-(3-morpholin-4-yl-propoxy)-quinazolin-6-yl]-2-fluoro-acrylamide]
0.19 nM	1.3 µM	2.2 µM	C=C(F)C(=O)Nc1cc2c(Nc3ccc(F)c(Cl)c3F)ncnc2cc1OCCCN1CCOCC1 [Compound 24, N-[4-(3-chloro-2,4-difluoro-phenylamino)-7-(3-morpholin-4-yl-propoxy)-quinazolin-6-yl]-2-fluoro-acrylamide]
0.19 nM	1.2 µM	1.9 µM	C#Cc1cccc(Nc2ncnc3cc(OCCCN4CCOCC4)c(NC(=O)C(=C)F)cc23)c1 [Compound 25, N-[4-(3-ethynyl-phenylamino)-7-(3-morpholin-4-yl-propoxy)-quinazolin-6-yl]-2-fluoro-acrylamide]
0.35 nM	4.5 µM	5.4 µM	C=C(F)C(=O)Nc1cc2c(Nc3cccc(Cl)c3F)ncnc2cc1OCCCN1CCOCC1 [Compound 26, N-[4-(3-chloro-2-fluoro-phenylamino)-7-(3-morpholin-4-yl-propoxy)-quinazolin-6-yl]-2-fluoro-acrylamide]
0.32 nM	29 µM	1.4 µM	C=C(F)C(=O)Nc1cc2c(Nc3cccc(Br)c3)ncnc2cc1OCCCN1CCOCC1 [Compound 28, N-[4-(3-bromo-phenylamino)-7-(3-morpholin-4-yl-propoxy)-quinazolin-6-yl]-2-fluoro-acrylamide]
3.3 nM	5.9 µM	1.9 µM	C=C(F)C(=O)Nc1cc2c(Nc3ccc(OCc4cccc(F)c4)c(Cl)c3)ncnc2cc1OCCCN1CCOCC1 [Compound 29, N-[4-[3-chloro-4-(3-fluoro-benzyloxy)-phenylamino]-7-(3-morpholin-4-yl-propoxy)-quinazolin-6-yl]-2-fluoro-acrylamide]
0.22 nM	0.52 µM	1.5 µM	C=C(F)C(=O)Nc1cc2c(Nc3ccc(Cl)c(Cl)c3F)ncnc2cc1OCCCN1CCOCC1 [Compound 30, N-[4-(3,4-dichloro-2-fluoro-phenylamino)-7-(3-morpholin-4-yl-propoxy)-quinazolin-6-yl]-2-fluoro-acrylamide]
1.4 nM	6.5 µM	6 µM	C=C(F)C(=O)Nc1cc2c(Nc3ccc(F)cc3F)ncnc2cc1OCCCN1CCOCC1 [Compound 31, N-[4-(2,4-difluoro-phenylamino)-7-(3-morpholin-4-yl-propoxy)-quinazolin-6-yl]-2-fluoro-acrylamide]
0.72 nM	4.2 µM	5.6 µM	C=C(F)C(=O)Nc1cc2c(Nc3ccc(F)c(F)c3F)ncnc2cc1OCCCN1CCOCC1 [Compound 32, N-[7-(3-morpholin-4-yl-propoxy)-4-(2,3,4-trifluoro-phenylamino)-quinazolin-6-yl]-2-fluoro-acrylamide]
0.65 nM	> 100 µM	5.2 µM	C=C(Cl)C(=O)Nc1cc2c(Nc3ccc(F)c(Cl)c3F)ncnc2cc1OCCCN1CCOCC1 [Compound 34, N-[4-(3-chloro-2,4-difluoro-phenylamino)-7-(3-morpholin-4-yl-propoxy)-quinazolin-6-yl]-2-chloro-acrylamide]
0.97 nM	> 100 µM	8.5 µM	C=C(Cl)C(=O)Nc1cc2c(Nc3ccc(F)c(Cl)c3)ncnc2cc1OCCCN1CCOCC1 [Compound 35, N-[4-(3-chloro-4-fluoro-phenylamino)-7-(3-morpholin-4-yl-propoxy)-quinazolin-6-yl]-2-chloro-acrylamide]
4.7 nM	> 100 µM	1.9 µM	C=C(F)C(=O)Nc1cc2c(Nc3ccc(Cl)c(OC)c3)ncnc2cc1OCCCN1CCOCC1 [Compound 37, N-[4-(4-chloro-3-methoxy-phenylamino)-7-(3-morpholin-4-yl-propoxy)-quinazolin-6-yl]-2-fluoro-acrylamide]
0.35 nM	0.18 µM	1.1 µM	C=C(F)C(=O)Nc1cc2c(Nc3ccc(Br)c(Cl)c3F)ncnc2cc1OCCCN1CCOCC1 [Compound 38, N-[4-(4-bromo-3-chloro-2-fluoro-phenylamino)-7-(3-morpholin-4-yl-propoxy)-quinazolin-6-yl]-2-fluoro-acrylamide]
1 nM	1.3 µM	3.4 µM	C=C(F)C(=O)Nc1cc2c(Nc3ccc(F)c(Cl)c3)ncnc2cc1OCCCN1CCCCC1 [Compound 40, N-[4-(3-chloro-4-fluoro-phenylamino)-7-(3-piperidin-l-yl-propoxy)-quinazolin-6-yl]-2-fluoro-acrylamide]
0.55 nM	0.53 µM	2.4 µM	C=C(F)C(=O)Nc1cc2c(Nc3ccc(F)c(Cl)c3)ncnc2cc1OCCCN(C)C [Compound 42, N-[4-(3-chloro-4-fluoro-phenylamino)-7-(3-dimethylamino-propoxy)-quinazolin-6-yl]-2-fluoro-acrylamide]
1.3 nM	1.68 µM	3.4 µM	C=C(F)C(=O)Nc1cc2c(Nc3ccc(F)c(Cl)c3)ncnc2cc1OCCCN1CCCC1 [Compound 43, N-[4-(3-chloro-4-fluoro-phenylamino)-7-(3-pyrrolidin-l-yl-propoxy)-quinazolin-6-yl]-2-fluoro-acrylamide]
0.29 nM	0.53 µM	3.7 µM	C=C(F)C(=O)Nc1cc2c(Nc3ccc(F)c(Cl)c3)ncnc2cc1OCCCN1CCN(C)CC1 [Compound 44, N-{4-(3-chloro-4-fluoro-phenylamino)-7-[3-(4-methyl-piperazin-1-yl)-propoxy]-quinazolin-6-yl}-2-fluoro-acrylamide]
1.88 nM	14 µM	1.5 µM	C=C(F)C(=O)Nc1cc2c(Nc3ccc(F)c(Cl)c3F)ncnc2cc1OCC1CCC1 [Compound 47, N-[4-(3-chloro-2,4-difluoro-phenylamino)-7-cyclobutylmethoxy-quinazolin-6-yl]-2-fluoro-acrylamide]
0.65 nM	13 µM	1.8 µM	C=C(F)C(=O)Nc1cc2c(Nc3ccc(F)c(Cl)c3F)ncnc2cc1OCC1CC1 [Compound 48, N-[4-(3-chloro-2,4-difluoro-phenylamino)-7-cyclopropylmethoxy-quinazolin-6-yl]-2-fluoro-acrylamide]
5.5 nM	15 µM	2.4 µM	C=C(F)C(=O)Nc1cc2c(Nc3ccc(F)c(Cl)c3F)ncnc2cc1O[C@@H]1CCN(C)C1 [Compound 50, (R)-N-[4-(3-chloro-2,4-difluoro-phenylamino)-7-(1-methyl-pyrrolidin-3-yloxy)-quinazolin-6-yl]-2-fluoro-acrylamide]
4.9 nM	20 µM	7.3 µM	C=C(F)C(=O)Nc1cc2c(Nc3ccc(F)c(Cl)c3F)ncnc2cc1O[C@H]1CCN(C)C1 [Compound 51, (S)-N-[4-(3-chloro-2,4-difluoro-phenylamino)-7-(1-methyl-pyrrolidin-3-yloxy)-quinazolin-6-yl]-2-fluoro-acrylamide]
0.22 nM	1.6 µM	0.47 µM	C=C(F)C(=O)Nc1cc2c(Nc3cccc(Br)c3)ncnc2cc1OC [Compound 52, N-[4-(3-bromo-phenylamino)-7-methoxy-quinazolin-6-yl]-2-fluoro-acrylamide]
0.36 nM	36 µM	1 µM	C=C(F)C(=O)Nc1cc2c(Nc3cccc(Br)c3)ncnc2cc1OCC [Compound 53, N-[4-(3-bromo-phenylamino)-7-ethoxy-quinazolin-6-yl]-2-fluoro-acrylamide]
1.1 nM	3.8 µM	13 µM	C=C(F)C(=O)Nc1cc2c(Nc3cccc(C(F)(F)F)c3)ncnc2cc1OC [Compound 54, N-[7-methoxy-4-(3-trifluoromethyl-phenylamino)-quinazolin-6-yl]-2-fluoro-acrylamide]

From US9371292B2, “Quinazoline derivative, preparation method therefor, intermediate, composition and application thereof” (SHANGHAI PHARMACEUTICALS HOLDINGS CO., LTD., priority 2011, dated 2016)
